One assay deals with T1, human STING WT (R232) (Homo sapiens, UniProt Q86WV6, H232R).
T1 construct: purchased Cisbio 64BDSTGPEG
Kind of assay: Human STING HTRF binding assay (competitive, Cisbio 64BDSTGPEG). A digest of the protocol: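 Competitive HTRF: 6His-tagged human STING WT R232 binding domain (residues 138-379) with anti-6His Cryptate antibody and d2-labeled STING ligand, 180 min at room temperature, 1% DMSO, 8 concentrations from 10 μM or 1 μM top in ~1:5 steps. HTRF ratios were calibrated to a cGAMP standard curve and IC50 obtained by 4-parameter logistic fit.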
A general note: Time-resolved FRET reads energy transfer from a long-lived donor to a nearby acceptor.

Assay [1] concerns the target T2, cGAMP binding domain of wild-type (GRR) human STING, residues 155-341 (Homo sapiens, UniProt Q86WV6, H232R).
T2 construct: His-TEV-hSTING (WT); TEV protease cleavage site (N); made in house; host or cells: E. coli BL21 DE3
Nature of the assay: Increase of stability of STING protein against thermal denaturation, Differential Scanning Fluorimetry (DSF). A digest of the protocol: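 3 µM His-tagged protein with 100 uM compound, 5×SYPRO Orange, 2% DMSO in 20 mM Tris, 150 mM NaCl, pH7.5; 15–95 °C ramp in 0.5 °C steps (15 s/cycle). Tm from Boltzmann fit of the dye melt curve, duplicates averaged, repeated if SD>1.5 °C; ΔTm = Tm with compound minus Tm of protein alone.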

We go through 19 compounds from patent US20260265244A1, “HETEROCYCLIC COMPOUNDS AS STING ANTAGONISTS” (Boehringer Ingelheim International GmbH, priority 2022, published 2026).

As a reminder, the IC50 is the concentration that gives 50% inhibition. A low value points to inhibition by little substance.

T2 sequence (Q86WV6 with tags, fused parts or gaps H232R): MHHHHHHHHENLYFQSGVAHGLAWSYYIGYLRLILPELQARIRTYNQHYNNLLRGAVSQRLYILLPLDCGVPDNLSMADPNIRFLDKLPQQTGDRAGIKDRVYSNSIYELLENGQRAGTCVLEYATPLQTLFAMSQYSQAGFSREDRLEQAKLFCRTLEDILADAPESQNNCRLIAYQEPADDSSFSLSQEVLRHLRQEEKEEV
T1 sequence (Q86WV6 138-379 H232R): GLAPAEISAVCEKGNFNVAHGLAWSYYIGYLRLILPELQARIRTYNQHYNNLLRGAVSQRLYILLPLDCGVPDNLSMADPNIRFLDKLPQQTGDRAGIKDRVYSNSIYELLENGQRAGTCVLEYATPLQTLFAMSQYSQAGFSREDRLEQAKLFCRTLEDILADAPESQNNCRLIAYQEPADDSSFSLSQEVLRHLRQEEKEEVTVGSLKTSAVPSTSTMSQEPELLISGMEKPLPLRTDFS

With `Cc1nc2nn(Cc3cccnc3)cc2cc1-n1nc(-c2cccc3nn(C[C@H](O)c4ccccc4)cc23)c(C(C)C)c1C` [Example 6, (1R)-2-[4-(5-methyl-1-{6-methyl-2-[(pyridin-3-yl)methyl]-2H-pyrazolo[3,4-b]pyridin-5-yl}-4-(propan-2-yl)-1H-pyrazol-3-yl)-2H-indazol-2-yl]-1-phenylethan-1-ol], the half-inhibitory concentration (IC50) on human STING WT (R232) was determined as 0.0142 µM. Besides, in assay [1], the DSF is reported as 29 K.
Turning to `Cc1nc2nn(CC(O)CO)cc2cc1-n1nc(-c2cccc3nn(C[C@H](O)c4ccccc4)cc23)c(C(C)C)c1C` (stereo partly drawn) [Example 67, 3-[5-(3-{2-[(2R)-2-hydroxy-2-phenylethyl]-2H-indazol-4-yl}-5-methyl-4-(propan-2-yl)-1H-pyrazol-1-yl)-6-methyl-2H-pyrazolo[3,4-b]pyridin-2-yl]propane-1,2-diol], the IC50 on human STING WT (R232) turned out to be 0.0108 µM. In assay [1], the DSF is 26 K.
On human STING WT (R232), `Cn1cc2cc(-c3nc(-c4cccc5nn(C[C@H](O)c6ccc(O)cc6)cc45)c(C4CC4)n3C)c(C3CC3)nc2n1` [Example 55, 4-[(1R)-2-[4-(5-cyclopropyl-2-{6-cyclopropyl-2-methyl-2H-pyrazolo[3,4-b]pyridin-5-yl}-1-methyl-1H-imidazol-4-yl)-2H-indazol-2-yl]-1-hydroxyethyl]phenol] returned an IC50 of 0.0037 µM. Also, the DSF in assay [1] was determined as 29 K.
For `Cc1c(C2CC2)c(-c2cccc3nn(C[C@H](O)c4ccccc4)cc23)nn1-c1cc2cn(C)nc2nc1C1CC1` [Example 29, (1R)-2-[4-(4-cyclopropyl-1-{6-cyclopropyl-2-methyl-2H-pyrazolo[3,4-b]pyridin-5-yl}-5-methyl-1H-pyrazol-3-yl)-2H-indazol-2-yl]-1-phenylethan-1-ol], in that order: 0.0028 µM and 29 K.
Take `Cc1nc2nn(CCCC#N)cc2cc1-n1nc(-c2cccc3nn(C[C@H](O)c4ccccc4)cc23)c(C(C)C)c1C` [Example 2, 4-[5-(3-{2-[(2R)-2-hydroxy-2-phenylethyl]-2H-indazol-4-yl}-5-methyl-4-(propan-2-yl)-1H-pyrazol-1-yl)-6-methyl-2H-pyrazolo[3,4-b]pyridin-2-yl]butanenitrile]: the IC50 on human STING WT (R232) was 0.0158 µM. Also, the DSF in assay [1] is listed as 28 K.
Compound `Cc1nc2nn(CCCN3CCOCC3)cc2cc1-n1nc(-c2cccc3nn(C[C@H](F)c4ccccc4)cc23)c(C(C)C)c1C` [Example 49, 2-[(2R)-2-fluoro-2-phenylethyl]-4-(5-methyl-1-{6-methyl-2-[3-(morpholin-4-yl)propyl]-2H-pyrazolo[3,4-b]pyridin-5-yl}-4-(propan-2-yl)-1H-pyrazol-3-yl)-2H-indazole] had an IC50 at human STING WT (R232) of 0.0222 µM. In assay [1], this compound returned a DSF of 26 K.
For `CCc1nc2nn(C)cc2cc1-c1nc(-c2cccc3nn(C[C@H](F)c4ccc(Cl)cc4)cc23)c(C2CC2)n1C` [Example 72, 2-[(2R)-2-(4-chlorophenyl)-2-fluoroethyl]-4-(5-cyclopropyl-2-{6-ethyl-2-methyl-2H-pyrazolo[3,4-b]pyridin-5-yl}-1-methyl-1H-imidazol-4-yl)-2H-indazole], in that order: 0.0176 µM and 30 K.
`Cc1c(C(C)C)c(-c2cccc3nn(C[C@H](O)c4ccccc4)cc23)nn1-c1cc2cn(C)nc2nc1CN(C)C` [Example 112]: the IC50 on human STING WT (R232) amounted to 0.0317 µM. The same compound gave a DSF in assay [1] of 23 K.
At human STING WT (R232), `Cc1nc2nn(CCN(C)C)cc2cc1-n1nc(-c2cccc3nn(C[C@H](O)c4ccccc4)cc23)c(C(C)C)c1C` [Example 39, (1R)-2-[4-(1-{2-[2-(dimethylamino)ethyl]-6-methyl-2H-pyrazolo[3,4-b]pyridin-5-yl}-5-methyl-4-(propan-2-yl)-1H-pyrazol-3-yl)-2H-indazol-2-yl]-1-phenylethan-1-ol] showed an IC50 of 0.0154 µM. This compound gave a DSF in assay [1] of 25 K.
Take `Cc1nc2nn(C)cc2cc1-n1nc(-c2cccc3nn(C[C@H](O)c4ccc(F)cc4)cc23)c(C(C)C)c1C` [Example 46, (1R)-2-[4-(1-{2,6-dimethyl-2H-pyrazolo[3,4-b]pyridin-5-yl}-5-methyl-4-(propan-2-yl)-1H-pyrazol-3-yl)-2H-indazol-2-yl]-1-(4-fluorophenyl)ethan-1-ol]: the concentration for half-maximal inhibition (IC50) on human STING WT (R232) was determined as 0.0152 µM. In addition, the DSF in assay [1] is listed as 27 K.
Consider `Cn1c(-c2cc3cn(CCC#N)nc3nc2C2CC2)nc(-c2cccc3nn(C[C@H](O)c4ccccc4)cc23)c1C1CC1` [Example 104, 3-[6-cyclopropyl-5-(5-cyclopropyl-4-{2-[(2R)-2-hydroxy-2-phenylethyl]-2H-indazol-4-yl}-1-methyl-1H-imidazol-2-yl)-2H-pyrazolo[3,4-b]pyridin-2-yl]propanenitrile], for which, on human STING WT (R232), the half-inhibitory concentration (IC50) was 0.002 µM. For the same compound, in assay [1], the DSF worked out at 31 K.
As for `Cc1nc2nn(C)cc2cc1-n1nc(-c2cccc3nn(C[C@H](OCC4CC4)c4ccccc4)cc23)c(C(C)C)c1C` [Example 63, 2-[(2R)-2-(cyclopropylmethoxy)-2-phenylethyl]-4-(1-{2,6-dimethyl-2H-pyrazolo[3,4-b]pyridin-5-yl}-5-methyl-4-(propan-2-yl)-1H-pyrazol-3-yl)-2H-indazole], the IC50 at human STING WT (R232) worked out at 0.0398 µM. Further, the DSF in assay [1] was determined as 22 K.
For the compound `Cn1cc2cc(-c3nc(-c4cccc5nn(C[C@H](O)c6ccc(OC7COC7)cc6)cc45)c(C4CC4)n3C)c(C3CC3)nc2n1` [Example 69, (1R)-2-[4-(5-cyclopropyl-2-{6-cyclopropyl-2-methyl-2H-pyrazolo[3,4-b]pyridin-5-yl}-1-methyl-1H-imidazol-4-yl)-2H-indazol-2-yl]-1-[4-(oxetan-3-yloxy)phenyl]ethan-1-ol], the half-inhibitory concentration (IC50) on human STING WT (R232) is 0.0075 µM. In assay [1], this compound registered a DSF of 29 K.
`CC(C)c1nc2nn(C)cc2cc1-c1nc(-c2cccc3nn(C[C@H](O)c4ccccc4)cc23)c(C2CC2)n1C` [Example 97, (1R)-2-(4-{5-Cyclopropyl-1-methyl-2-[2-methyl-6-(propan-2-yl)-2H-pyrazolo[3,4-b]pyridin-5-yl]-1H-imidazol-4-yl}-2H-indazol-2-yl)-1-phenylethan-1-ol] came in with an IC50 at human STING WT (R232) of 0.0034 µM. Moreover, the DSF in assay [1] was 31 K.
For the compound `Cc1c(C(C)C)c(-c2cccc3nn(C[C@H](O)c4ccccc4)cc23)nn1-c1cc2cn(C)nc2nc1CO` [Example 106, (1R)-2-(4-{1-[6-(hydroxymethyl)-2-methyl-2H-pyrazolo[3,4-b]pyridin-5-yl]-5-methyl-4-(propan-2-yl)-1H-pyrazol-3-yl}-2H-indazol-2-yl)-1-phenylethan-1-ol], the IC50 on human STING WT (R232) was 0.0032 µM. Also, the DSF in assay [1] is listed as 28 K.
On to `CCCc1nc2nn(C)cc2cc1-n1nc(-c2cccc3nn(C[C@H](O)c4ccccc4)cc23)c(C(C)C)c1C` [Example 60, (1R)-2-[4-(5-methyl-1-{2-methyl-6-propyl-2H-pyrazolo[3,4-b]pyridin-5-yl}-4-(propan-2-yl)-1H-pyrazol-3-yl)-2H-indazol-2-yl]-1-phenylethan-1-ol], for which the IC50 on human STING WT (R232) is 0.0239 µM. The compound also yielded a DSF in assay [1] of 28 K.
The compound `Cc1nc2nn(CCCN3CCC(F)(F)C3)cc2cc1-n1nc(-c2cccc3nn(C[C@H](O)c4ccccc4)cc23)c(C(C)C)c1C` [Example 40, (1R)-2-[4-(1-{2-[3-(3,3-difluoropyrrolidin-1-yl)propyl]-6-methyl-2H-pyrazolo[3,4-b]pyridin-5-yl}-5-methyl-4-(propan-2-yl)-1H-pyrazol-3-yl)-2H-indazol-2-yl]-1-phenylethan-1-ol] returned a half-inhibitory concentration (IC50) on human STING WT (R232) of 0.0284 µM. Further, the DSF in assay [1] amounted to 27 K.
Consider `COCCn1cc2cc(-n3nc(-c4cccc5nn(C[C@H](O)c6ccccc6)cc45)c(C(C)C)c3C)c(C)nc2n1` [Example 16, (1R)-2-(4-{1-[2-(2-methoxyethyl)-6-methyl-2H-pyrazolo[3,4-b]pyridin-5-yl]-5-methyl-4-(propan-2-yl)-1H-pyrazol-3-yl}-2H-indazol-2-yl)-1-phenylethan-1-ol], for which the IC50 at human STING WT (R232) was 0.0066 µM. This compound also gave a DSF in assay [1] of 28 K.
At human STING WT (R232), `Cc1c(C(C)C)c(-c2cccc3nn(C[C@H](O)c4ccccc4)cc23)nn1-c1cc2cn(C)nc2nc1C1CCC1` [Example 53, (1R)-2-[4-(1-{6-cyclobutyl-2-methyl-2H-pyrazolo[3,4-b]pyridin-5-yl}-5-methyl-4-(propan-2-yl)-1H-pyrazol-3-yl)-2H-indazol-2-yl]-1-phenylethan-1-ol] came in with an IC50 of 0.0286 µM. Besides, in assay [1], the DSF worked out at 30 K.
